What was measured:
P2X7 [1] = target: T1, P2X7 (Homo sapiens, UniProt Q99572); assay: IL-1β release assay in THP-1 cells (sandwich ELISA); format: cell-based; design: release of mature IL-1β in the culture medium of THP-1 cells; endogenous in cells; host or cells: THP-1 cells (PMA-differentiated, LPS-primed); conditions: PMA, LPS primed, stimulated with 0.8 mM BzATP, mature IL-1β release, read-out: hTHP-1/IL-ib IC50
T1 sequence (Q99572 1-595): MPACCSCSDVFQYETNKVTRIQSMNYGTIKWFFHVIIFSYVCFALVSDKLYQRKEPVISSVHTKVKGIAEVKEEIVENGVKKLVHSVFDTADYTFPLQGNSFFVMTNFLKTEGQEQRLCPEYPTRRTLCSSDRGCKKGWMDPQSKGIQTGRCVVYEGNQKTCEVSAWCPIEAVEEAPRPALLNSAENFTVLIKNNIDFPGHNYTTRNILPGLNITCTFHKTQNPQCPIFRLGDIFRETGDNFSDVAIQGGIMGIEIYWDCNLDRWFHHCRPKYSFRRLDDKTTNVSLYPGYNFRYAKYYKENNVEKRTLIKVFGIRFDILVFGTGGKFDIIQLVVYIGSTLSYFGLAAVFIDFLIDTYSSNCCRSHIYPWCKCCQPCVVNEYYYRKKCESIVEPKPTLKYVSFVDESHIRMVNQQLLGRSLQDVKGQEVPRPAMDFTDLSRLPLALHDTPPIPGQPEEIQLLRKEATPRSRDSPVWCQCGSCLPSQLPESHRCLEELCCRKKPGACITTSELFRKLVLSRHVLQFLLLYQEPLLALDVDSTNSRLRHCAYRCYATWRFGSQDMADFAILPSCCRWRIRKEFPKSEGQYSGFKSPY
Description: The activation of P2X7 by ATP leads to a fast transient activation of cells resulting in influx of Ca^2+ followed by conversion of pro-IL-1β to active IL-1β. The functional activity of P2X7 compounds was measured by the release of mature IL-1β in the culture medium of THP-1 cells, detected by sandwich ELISA. Cells were maintained in complete growth medium (RPMI 1640+10% HI-FCS+2 mM L-glutamine+1×PS). […] THP-1 cells were harvested from the flask in 50 ml by centrifugation for 3 min at 100 g. The cells were resuspended to 2×10^5 cells/ml in medium supplemented with 0.5 μM PMA and incubated. The cells were washed and resuspended to 1.5×10^5 cells/ml in medium complemented with 10 ng/ml LPS, and the cells were primed for 4 h at 37° C., 5% CO2. After addition of 20 μL of prediluted test compounds, blank, standard and control reagents, cells were incubated for a further 20 min at 37° C. and stimulated with 0.8 mM BzATP for 30 minutes. The cells were centrifuged, supernatant was collected and the presence of mature IL-1β was detected using Dual human IL-1b kit following manufacturer's instruction. The tetrahydrobenzodiazepine analogs effectively modulated the activity of P2X7 in the cells as measured by the levels of pro-inflammatory cytokine IL-1β, which is released by the activation of P2X7 receptor.

P2X7 [2] = target: T1, P2X7; assay: Pore permeation assay (YO PRO dye uptake, BzATP-induced); format: cell-based; design: expressed in transfected cells; host or cells: HEK293; conditions: HEK293 transfected with human P2X7 receptor; YO PRO dye 1 uM, BzATP 10 uM; read-out: hP2X7 IC50
Description: Agonist-induced pore formation was determined by measuring cellular uptake of YO PRO fluorescence dye in HEK293 transfected with human P2X7 receptor. A HEK293 cell over expressing human P2X7 was harvested using HQTase reagent to detach the cells from T75 cm flask. The harvested cells are centrifuged @ 1200 rpm for 5 min at room temperature. The viability of cells was determined by Trypan blue dye and the cells are plated @ 10,000 cell/well in 50 ul volume in a 384 W BD Poly lysine coated plate and incubated overnight at 37 C. After overnight incubation, the culture medium was replaced with 35 ul/well assay buffer (5 mM KCl, 0.1 mM CaCl2, 5 mM Glucose, 10 mM HEPES buffer pH7.4 containing 125 mM NaCl. The serial dilution of compounds was performed using Bravo liquid handling instrument and the compounds were added using Bravo to the cell assay plate starting at 2.5 uM with three dilutions for 10 points. The positive control inhibitor compound was added to column 23. The plate was shaken slowly on a plate shaker for 10 seconds. The cells were incubated with the compound for 20 minutes at room temperature. After the incubation period, YO PRO dye (1 uM) along with BzATP (10 uM) were added to cells at 10 ul/well. The plate was centrifuged at 1000 rpm for 5 seconds and incubated at room temperature for 30 minutes. The uptake of YO PRO dye into the cells was measured using Envision Fluorescence plate reader instrument (Perkin Elmer).

SMILES | IC50 (P2X7 [1]) | IC50 (P2X7 [2])
O=C(NCC1CCC(F)(F)CC1)c1c(Cl)ccc2nc(C3CCOCC3)ccc12 [Compound 47, 6-Chloro-2-(tetrahydro-pyran-4-yl)-quinoline-5-carboxylic acid (4,4-difluoro-cyclohexyl methyl)-amide] | 101 to 500 nM | 10 to 100 nM
O=C(NCC1CCC(F)(F)CC1)c1c(Cl)ccc2nc(C3CCCCC3)ccc12 [Compound 48, 6-Chloro-2-cyclohexyl-quinoline-5-carboxylic acid (4,4-difluoro-cyclohexylmethyl)-amide] | 101 to 500 nM | 10 to 100 nM
O=C(NCC1CCC(F)(F)CC1)c1c(Cl)ccc2nc(N3CCCC3)ccc12 [Compound 50] | 101 to 500 nM | 10 to 100 nM
CC(C)(C)OC(=O)N1CC=C(c2ccc3c(C(=O)NCC4CCC(F)(F)CC4)c(Cl)ccc3n2)CC1 [Compound 51, 4-{6-Chloro-5-[(4,4-difluoro-cyclohexylmethyl)-carbamoyl]-quinolin-2-yl}-3,6-dihydro-2H-pyridine-1-carboxylic acid tert-butyl ester] | 101 to 500 nM | 10 to 100 nM
CN(C)C1CCN(c2ccc3c(C(=O)NCC4CCC(F)(F)CC4)c(Cl)ccc3n2)C1 (stereo not shown) [Compound 52] | 101 to 500 nM | 10 to 100 nM
O=C(NCC1(O)CCCC(F)(F)C1)c1c(Cl)ccc2nc(N3CCC3)ccc12 (stereo not shown) [Compound 54, 2-(Azetidin-1-yl)-6-chloro-quinoline-5-carboxylic acid (3,3-difluoro-1-hydroxycyclohexylmethyl)-amide] | 101 to 500 nM | 10 to 100 nM
CCOC(=O)C1CCCN(c2ccc3c(C(=O)NCC4CCC(F)(F)CC4)c(Cl)ccc3n2)C1 (stereo not shown) [Compound 55, 1-{6-Chloro-5-[(4,4-difluoro-cyclohexylmethyl)-carbamoyl]-quinolin-2-yl}-piperidine-3-carboxylic acid ethyl ester] | > 1000 nM | 10 to 100 nM
O=C(NCC1CCC(F)(F)CC1)c1c(Cl)ccc2nc(N3CCC(F)(F)C3)ccc12 [Compound 58] | 101 to 500 nM | 10 to 100 nM
O=C(NCC1CCC(F)(F)CC1)c1c(Cl)ccc2nc(N3CCC(C(F)F)C3)ccc12 (stereo not shown) [Compound 59, 6-Chloro-2-(3-difluoromethyl-pyrrolidin-1-yl)-quinoline-5-carboxylic acid (4,4-difluoro-cyclohexylmethyl)-amide] | 101 to 500 nM | 10 to 100 nM
O=C(NCC1CCC(F)(F)CC1)c1c(Cl)ccc2nc(NCCCO)ccc12 [Compound 60, 6-Chloro-2-(3-hydroxy-propylamino)-quinoline-5-carboxylic acid (4,4-difluoro-cyclo hexyl methyl)-amide] | 101 to 500 nM | 10 to 100 nM
O=C(NCC1CCC(F)(F)CC1)c1c(Cl)ccc2nc(N3CC[C@@H](O)C3)ccc12 [Compound 61] | 101 to 500 nM | 10 to 100 nM
COCCCOc1ccc2c(C(=O)NCC3(O)CCC(F)(F)CC3)c(Cl)ccc2n1 [Compound 62, 6-Chloro-2-(3-methoxy-propoxy)-quinoline-5-carboxylic acid (4,4-difluoro-1-hydroxy-cyclohexyl methyl)-amide] | 101 to 500 nM | 10 to 100 nM
O=C(NCC1CCCC(F)(F)C1)c1c(Cl)ccc2nc(N3CCC(CCO)C3)ccc12 (stereo not shown) [Compound 63, 6-Chloro-2-(3-hydroxyethyl-pyrrolidin-1-yl)-quinoline-5-carboxylic acid (3,3-difluoro-cyclohexylmethyl)-amide] | 101 to 500 nM | 10 to 100 nM
O=C(NCC1CCC(F)(F)CC1)c1c(Cl)ccc2nc(CCCO)ccc12 [Compound 64, 6-Chloro-2-(3-hydroxy-propyl)-quinoline-5-carboxylic acid (4,4-Difluorocyclohexyl methyl)-amide] | 101 to 500 nM | 10 to 100 nM
O=C(NCC1(O)CCCCCC1)c1c(Cl)ccc2ncccc12 [Compound 65] | 101 to 500 nM | 10 to 100 nM

More lines, now with the values ahead:

IC50 (P2X7 [1]) | IC50 (P2X7 [2]) | SMILES
10 to 100 nM | 10 to 100 nM | O=C(NCC1(O)CCCC(F)(F)C1)c1c(Cl)ccc2nc(N3CC[C@H](F)C3)ccc12 (stereo partly drawn) [Compound 36, 6-Chloro-2-((S)-3-fluoropyrrolidin-1-yl)-quinoline-5-carboxylic acid (3,3-difluoro-1-hydroxycyclohexylmethyl)-amide]
10 to 100 nM | 10 to 100 nM | O=C(NCC1(O)CCCC(F)(F)C1)c1c(Cl)ccc2nc(N3CC[C@@H](F)C3)ccc12 (stereo partly drawn) [Compound 37, 6-Chloro-2-((R)-3-fluoropyrrolidin-1-yl)-quinoline-5-carboxylic acid (3,3-difluoro-1-hydroxycyclohexylmethyl)-amide]
10 to 100 nM | 10 to 100 nM | O=C(NCC1(O)CCCC(F)(F)C1)c1c(Cl)ccc2nc(N3CCC(F)C3)ccc12 (stereo not shown) [Compound 38, 6-Chloro-2-(3-fluoropyrrolidin-1-yl)-quinoline-5-carboxylic acid (3,3-difluoro-1-hydroxycyclohexylmethyl)-amide]
10 to 100 nM | 10 to 100 nM | O=C(NCC1CCCC(F)(F)C1)c1c(Cl)ccc2nc(N3CCC(F)C3)ccc12 (stereo not shown) [Compound 39, 6-Chloro-2-(3-fluoropyrrolidin-1-yl)-quinoline-5-carboxylic acid (3,3-difluoro-cyclohexylmethyl)-amide]
10 to 100 nM | 10 to 100 nM | O=C(NCC1CCC(F)(F)CC1)c1c(Cl)ccc2nc(N3CC[C@H](F)C3)ccc12 [Compound 41, 6-Chloro-2-((S)-3-fluoropyrrolidin-1-yl)-quinoline-5-carboxylic acid (4,4-difluoro-cyclohexylmethyl)-amide]
101 to 500 nM | 10 to 100 nM | O=C(NCC1CCC(F)(F)CC1)c1c(Cl)ccc2nc(C3=CCCC3)ccc12 [Compound 42, 6-Chloro-2-cyclopent-1-enyl-quinoline-5-carboxylic acid (4,4-difluoro-cyclohexyl methyl)-amide]
10 to 100 nM | 10 to 100 nM | CN(C)c1ccc2c(C(=O)NCC3CCC(F)(F)CC3)c(Cl)ccc2n1 [Compound 44]
10 to 100 nM | 10 to 100 nM | O=C(NCC1CCC(F)(F)CC1)c1c(Cl)ccc2nc(N3CCC(CO)C3)ccc12 (stereo not shown) [Compound 45]
10 to 100 nM | 10 to 100 nM | O=C(NCC1(O)CCCC(F)(F)C1)c1c(Cl)ccc2nc(N3CCC(F)(F)C3)ccc12 (stereo not shown) [Compound 46, 6-Chloro-2-(3,3-difluoropyrrolidin-1-yl)-quinoline-5-carboxylic acid (3,3-difluoro-1-hydroxycyclohexylmethyl)-amide]
10 to 100 nM | 10 to 100 nM | O=C(NCC1CCC(F)(F)CC1)c1c(Cl)ccc2nc(N3CCC3)ccc12 [Compound 49, 2-(azetidin-1-yl)-6-Chloro-quinoline-5-carboxylic acid (4,4-difluoro-cyclohexylmethyl)-amide]
10 to 100 nM | 10 to 100 nM | O=C(NCC1CCC(F)(F)CC1)c1c(Cl)ccc2nc(N3CCC(CCO)C3)ccc12 (stereo not shown) [Compound 56]
